# In patent publication US9040523B2, “Antifungal 5,6-dihydro-4H-pyrrolo[1,2-α][1,4]-benzodiazepines and 6H-pyrrolo[1,2-α][1,4]benzodiazepines substituted with benzene derivatives” (JANSSEN PHARMACEUTICA NV, priority 2010, dated 2015):
# What was measured:
# CYP3A4/5 = CYP3A4/5 (Homo sapiens, UniProt P08684); assay: in vitro; conditions: liver microsomes, pH 7.4, probe midazolam (2 microM)
# Description: (§1) Probe substrates and final assay concentrations with the appropriate internal standard are outlined in Table 6a.
# After a 10 min pre-incubation at 37° C., the reaction was started with addition of NADPH at a final concentration of 1.0 mM. […] The samples are centrifuged for 10 min at 4° C. at 4000 rpm and 60 microliters supernatant is diluted with 180 microliters water. Each sample is injected onto a UPLC/MS system for the simultaneous measurement of the probe substrate metabolites and their associated deuterated internal standards.
# (§2) Percentage inhibition data are plotted against the Log transformed test compound concentration and after curve fitting the IC50-value is determined.
# Cytochrome P450 2C8 = biological target: T1, Cytochrome P450 2C8 (Homo sapiens, UniProt P10632); assay: Human liver microsomal cytochrome P450 cocktail inhibition assay, Protocol C; type: in vitro ADME; conditions: human liver microsomes 0.2 mg/ml; probe amodiaquine 2 microM
# T1 construct: tissue BD Gentest; host or cells: human liver microsomes
# T1 sequence (P10632 1-490): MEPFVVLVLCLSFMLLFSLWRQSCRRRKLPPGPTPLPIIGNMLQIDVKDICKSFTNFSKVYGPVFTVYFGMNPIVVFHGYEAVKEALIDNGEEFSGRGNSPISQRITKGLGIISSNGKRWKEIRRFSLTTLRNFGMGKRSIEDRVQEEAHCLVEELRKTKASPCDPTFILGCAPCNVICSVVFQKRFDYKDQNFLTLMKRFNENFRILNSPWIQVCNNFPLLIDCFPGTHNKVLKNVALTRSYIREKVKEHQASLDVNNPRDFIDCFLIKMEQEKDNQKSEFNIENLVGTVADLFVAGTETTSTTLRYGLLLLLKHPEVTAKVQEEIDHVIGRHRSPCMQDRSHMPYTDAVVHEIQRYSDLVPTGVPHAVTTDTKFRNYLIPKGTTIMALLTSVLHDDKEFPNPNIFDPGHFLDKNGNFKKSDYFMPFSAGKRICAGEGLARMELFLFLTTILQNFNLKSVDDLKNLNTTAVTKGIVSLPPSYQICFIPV
# Description: as §1
# (§3) Assays were performed in 0.1 M phosphate buffer (pH 7.4), containing 0.2 mg/ml human liver microsomes (BD Gentest) and a probe substrate mix consisting of: phenacetin, tolbutamide, S-mephenyloin, dextromethorphan, amodiaquine and midazolam (Table 6a) and a range of test compound concentrations (0 to 30 micromolar) in a total volume of 100 microliters. After a 10 min pre-incubation at 37° C., the reaction was started with addition of NADPH at a final concentration of 1.0 mM. […] The samples are centrifuged for 10 min at 4° C. at 4000 rpm and 60 microliters supernatant is diluted with 180 microliters water. Each sample is injected onto a UPLC/MS system for the simultaneous measurement of the probe substrate metabolites and their associated deuterated internal standards. Percentage inhibition is calculated according to: %-inhibition=(1−Ri/R)*100, whereby Ri and R are the metabolite to internal standard peak area ratios in the presence and absence of inhibitor respectively.
# as §2
# Cytochrome P450 1A2 = biological target: T2, Cytochrome P450 1A2 (Homo sapiens, UniProt P05177); assay: as above; conditions: human liver microsomes 0.2 mg/ml; probe phenacetin 80 microM
# T2 sequence (P05177 1-516): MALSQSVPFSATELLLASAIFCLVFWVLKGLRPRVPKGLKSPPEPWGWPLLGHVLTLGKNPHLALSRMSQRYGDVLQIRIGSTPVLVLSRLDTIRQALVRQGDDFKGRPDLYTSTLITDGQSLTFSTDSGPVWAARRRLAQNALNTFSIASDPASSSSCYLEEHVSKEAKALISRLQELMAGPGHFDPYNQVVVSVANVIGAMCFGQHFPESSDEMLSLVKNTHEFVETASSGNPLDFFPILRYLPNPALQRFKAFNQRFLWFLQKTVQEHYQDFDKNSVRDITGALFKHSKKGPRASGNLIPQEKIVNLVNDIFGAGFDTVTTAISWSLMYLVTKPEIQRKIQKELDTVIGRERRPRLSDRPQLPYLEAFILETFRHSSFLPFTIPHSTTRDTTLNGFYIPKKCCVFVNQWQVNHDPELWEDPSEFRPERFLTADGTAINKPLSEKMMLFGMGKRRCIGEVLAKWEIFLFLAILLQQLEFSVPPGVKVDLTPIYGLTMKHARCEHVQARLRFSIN
# Description: as §1, §3, §2
# Cytochrome P450 2C9 = Cytochrome P450 2C9 (Homo sapiens, UniProt P11712); assay: as above; conditions: 2C9 Tolbut pIC50, human liver microsomes 0.2 mg/ml; probe tolbutamide 100 microM
# Description: as §1, §3, §2
# Cytochrome P450 2C19 = Cytochrome P450 2C19 (Homo sapiens, UniProt P33261); assay: as above; conditions: 2C19_S-Meph pIC50, human liver microsomes 0.2 mg/ml; probe S-mephenytoin 30 microM
# Description: as §1, §3, §2
# Cytochrome P450 2D6 = Cytochrome P450 2D6 (Homo sapiens, UniProt P10635); assay: as above; conditions: 2D6_Dextro pIC50, human liver microsomes 0.2 mg/ml; probe dextromethorphan 3 microM
# Description: as §1, §3, §2
# [1] = Liver metabolic stability assay, hLM; type: in vitro ADME, human; conditions: human liver microsomes, 1 mg protein/ml, 5 μM test compound, 15 min, 37 °C
# [2] = system: Trichophyton mentagrophytes B70554; assay: Antifungal activity in vitro (resazurin susceptibility screen), Inf. G; type: cell-based; conditions: Trichophyton mentagrophytes, B70554, Trichophyton mentagrophytes B70554; 27 °C, 7 days, resa time 24 hours; read-out: Inf. G pIC50 (converted)
# In short: (§4)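 Each well was inoculated with 10^3 cfu of fungus onto dried, pre-spotted compound serial dilutions in RPMI-MOPS medium, with fungal growth read by resazurin. Growth was referenced to drug-free culture (100%) and medium-only (0%) controls on each plate.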
# [3] = system: Trichophyton rubrum B68183; assay: Antifungal activity in vitro (resazurin susceptibility screen), Inf. C; type: cell-based; conditions: Trichophyton rubrum B68183; 27 °C, 7 days, resa time 24 hours; read-out: Inf. C pIC50 (converted)
# In short: (§5)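 Serially diluted compounds were pre-spotted into 96-well U-bottom plates, then each well received 10^3 cfu of cryopreserved fungal inoculum in 200 μl RPMI-MOPS medium. Every plate carried a compound-free growth control (100%) and a medium-only control (0%), with resazurin as read-out.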
# [4] = system: Rhizomucor miehei IHEM13391; assay: Antifungal activity in vitro (resazurin susceptibility screen), Inf. K; type: cell-based; conditions: 37 °C, 48 hours, resa time 17 hours, read-out: Inf. K pIC50 (converted)
# Description: (§6) The standard susceptibility screen was performed in 96-well plates (U-bottom, Greiner Bio-One). […] These serial dilutions (10 n1) were then spotted onto test-plates that could be stored in the dark at 4° C. for a maximum period of 2 weeks. […] The different fungal species/isolates (Table 3a) were cryopreserved and 1/1000 diluted in medium just prior to use. A standard inoculum of 200 μl containing 10^3 colony-forming unit (cfu) was then added to each well. A positive control (100% growth=fungal culture without antifungal) and a negative control (0% growth ═RPMI-MOPS medium) were included on each plate. […] [table]
# Microsporum canis B68128 = assay: Antifungal activity in vitro (resazurin susceptibility screen), Inf. B; type: cell-based; conditions: Microsporum canis, B68128, Microsporum canis B68128; 27 °C, 9 days, resa time 24 hours; read-out: Inf. B pIC50 (converted)
# In short: as §4
# Rhizopus oryzae IHEM5223 = assay: Antifungal activity in vitro (resazurin susceptibility screen), Inf. J; type: cell-based; conditions: Rhizopus arrhizus, 37 °C, 24 hours, resa time 6 hours, read-out: Inf. J pIC50 (converted)
# Description: as §6
# [5] = system: Scedosporium prolificans IHEM21157; assay: Antifungal activity in vitro (resazurin susceptibility screen), Inf. I; type: cell-based; conditions: Lomentospora prolificans, 37 °C, 48 hours, resa time 17 hours, read-out: Inf. I pIC50 (converted)
# Description: as §6
# [6] = Liver metabolic stability assay, gpLM; type: in vitro ADME, guinea pig; conditions: guinea pig microsomes, 1 mg protein/ml, 5 μM test compound, 15 min, 37 °C
# Description: (§7) Liver preparations (microsomal fractions) were obtained from BD Gentest (San Jose, Calif., US). Metabolic stability was assessed using the following assay conditions. […] The mixture was pre-incubated at 37° C. for 5 min and the enzymatic reaction was started by addition of 5 μM test compound. After 0 (control) and 15 minutes (min), the reactions were terminated by addition of […] (500 μl). The precipitated material was removed by centrifugation at 1200 g for 10 min. The supernatant was analysed by LC-MS/MS on a ThermoFinnigan LCQ Deca XP ion-trap mass spectrometer equipped with an atmospheric pressure chemical ionisation source. Calculation of %-compound remaining was as described by Kantharaj et al. 2003 ((Kantharaj E., Tuytelaars A, Proost P E A, Ongel Z, van […] (2003). Simultaneous measurement of drug metabolic stability and identification of metabolites using ion-trap mass spectrometry.
# [7] = system: Candida parapsilosis B66126; assay: Antifungal activity in vitro (resazurin susceptibility screen), Inf. D; type: cell-based; conditions: Lodderomyces parapsilosis; Candida parapsilosis B66126; 37 °C, 24 hours, resa time 4 hours; read-out: Inf. D pIC50 (converted)
# In short: as §4
# [8] = system: Scedosporium apiospermum IHEM3817; assay: Antifungal activity in vitro (resazurin susceptibility screen), Inf. H; type: cell-based; conditions: 37 °C, 48 hours, resa time 17 hours, read-out: Inf. H pIC50 (converted)
# Description: as §6
# [9] = system: Cryptococcus neoformans B66663; assay: Antifungal activity in vitro (resazurin susceptibility screen), Inf. F; type: cell-based; conditions: Cryptococcus neoformans, B66663, Cryptococcus neoformans B66663; 37 °C, 24 hours, resa time 4 hours; read-out: Inf. F pIC50 (converted)
# In short: as §5
# [10] = system: Aspergillus fumigatus B42928; assay: Antifungal activity in vitro (resazurin susceptibility screen), Inf. E; type: cell-based; conditions: Aspergillus fumigatus B42928; 27 °C, 48 hours, resa time 17 hours; read-out: Inf. E pIC50 (converted)
# In short: as §5
# [11] = Liver metabolic stability assay, mLM; type: in vitro ADME; conditions: mouse liver microsomes, 1 mg protein/ml, 5 μM test compound, 15 min, 37 °C
# Description: as §7
# [12] = system: Sporothrix schenkii B62482; assay: Antifungal activity in vitro (resazurin susceptibility screen), Inf. A; type: cell-based; conditions: Sporothrix, B62482, Sporothrix schenkii B62482; 27 °C, 4 days, resa time 24 hours; highest in-test concentration 64 μM; read-out: Inf. A pIC50 (converted)
# In short: as §5
# CYP3A4/5, sequence (P08684 2-503): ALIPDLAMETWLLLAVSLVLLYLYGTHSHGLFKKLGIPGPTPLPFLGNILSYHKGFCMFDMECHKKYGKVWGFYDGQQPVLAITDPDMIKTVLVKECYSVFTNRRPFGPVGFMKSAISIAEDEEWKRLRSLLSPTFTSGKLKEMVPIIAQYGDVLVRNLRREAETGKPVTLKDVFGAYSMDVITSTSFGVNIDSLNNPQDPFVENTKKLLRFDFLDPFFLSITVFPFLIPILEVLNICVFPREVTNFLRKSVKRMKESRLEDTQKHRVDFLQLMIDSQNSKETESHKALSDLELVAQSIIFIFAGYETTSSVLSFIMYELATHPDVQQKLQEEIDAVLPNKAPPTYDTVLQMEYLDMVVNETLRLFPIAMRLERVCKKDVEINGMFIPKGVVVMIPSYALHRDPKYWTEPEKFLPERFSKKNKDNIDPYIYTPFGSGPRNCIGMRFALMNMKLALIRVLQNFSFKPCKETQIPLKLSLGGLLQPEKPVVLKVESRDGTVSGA
# Cytochrome P450 2C9, sequence (P11712 whole entry): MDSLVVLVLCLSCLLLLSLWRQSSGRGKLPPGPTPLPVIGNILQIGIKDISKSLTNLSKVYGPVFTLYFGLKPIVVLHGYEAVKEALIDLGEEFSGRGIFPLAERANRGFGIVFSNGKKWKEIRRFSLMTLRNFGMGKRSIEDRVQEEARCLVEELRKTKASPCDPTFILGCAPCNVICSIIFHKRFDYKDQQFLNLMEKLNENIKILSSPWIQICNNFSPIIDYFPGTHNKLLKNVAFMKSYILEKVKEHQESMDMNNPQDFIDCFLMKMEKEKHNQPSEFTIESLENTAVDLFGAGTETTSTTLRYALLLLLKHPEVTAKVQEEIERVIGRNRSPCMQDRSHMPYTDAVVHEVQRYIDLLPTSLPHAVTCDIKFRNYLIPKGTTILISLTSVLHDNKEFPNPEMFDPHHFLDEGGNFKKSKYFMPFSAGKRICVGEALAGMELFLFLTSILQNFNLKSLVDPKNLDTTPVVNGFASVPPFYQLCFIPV
# Cytochrome P450 2C19, sequence (P33261 whole entry): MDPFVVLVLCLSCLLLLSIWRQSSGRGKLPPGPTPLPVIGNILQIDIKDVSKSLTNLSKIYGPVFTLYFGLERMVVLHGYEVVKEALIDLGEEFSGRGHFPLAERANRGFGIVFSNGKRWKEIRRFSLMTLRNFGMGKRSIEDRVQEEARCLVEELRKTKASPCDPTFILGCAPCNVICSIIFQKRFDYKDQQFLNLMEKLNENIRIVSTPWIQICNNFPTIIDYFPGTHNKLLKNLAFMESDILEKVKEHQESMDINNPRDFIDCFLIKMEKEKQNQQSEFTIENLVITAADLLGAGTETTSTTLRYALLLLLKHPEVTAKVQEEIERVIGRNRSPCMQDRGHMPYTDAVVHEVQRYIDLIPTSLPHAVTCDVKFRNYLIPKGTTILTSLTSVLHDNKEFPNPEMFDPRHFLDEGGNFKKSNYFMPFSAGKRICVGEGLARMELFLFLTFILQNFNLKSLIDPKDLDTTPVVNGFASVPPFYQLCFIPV
# Cytochrome P450 2D6, sequence (P10635 whole entry): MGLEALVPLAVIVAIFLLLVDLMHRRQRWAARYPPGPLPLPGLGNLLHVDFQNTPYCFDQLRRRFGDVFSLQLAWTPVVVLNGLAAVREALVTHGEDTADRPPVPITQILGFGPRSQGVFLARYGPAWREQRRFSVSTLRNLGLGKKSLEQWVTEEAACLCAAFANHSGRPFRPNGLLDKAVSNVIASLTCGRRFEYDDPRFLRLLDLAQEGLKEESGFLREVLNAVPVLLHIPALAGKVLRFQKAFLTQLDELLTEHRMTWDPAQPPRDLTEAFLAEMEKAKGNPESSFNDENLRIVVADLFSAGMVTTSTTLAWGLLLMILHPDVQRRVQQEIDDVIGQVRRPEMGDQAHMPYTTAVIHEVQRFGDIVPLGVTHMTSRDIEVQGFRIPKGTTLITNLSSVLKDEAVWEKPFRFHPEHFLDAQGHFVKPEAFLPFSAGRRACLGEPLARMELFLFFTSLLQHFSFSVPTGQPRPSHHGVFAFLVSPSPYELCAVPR
smiles,measurement,setting,value
Br.CCc1ccc(C2NCc3c(Cl)cccc3-n3cccc32)cc1 (stereo not drawn),IC50 at 10 min,CYP3A4/5,> 10 µM
same,2C8_Amod pIC50,Cytochrome P450 2C8,<5.0
same,1A2_Phen pIC50,Cytochrome P450 1A2,<5.0
same,IC50,Cytochrome P450 2C9,7.94 µM
same,IC50,Cytochrome P450 2C19,0.794 µM
same,IC50,Cytochrome P450 2D6,2 µM
"CC(=O)c1ccc(C2=NCc3c(Cl)cccc3-n3cccc32)cc1 [Compound 17, 1-[4-(7-chloro-6H-pyrrolo[1,2-a][1,4]benzodiazepin-4-yl)phenyl]-ethanone]",%-compound metabolised_Met_hLM,[1],50%
same,IC50,[2],0.251 µM
same,IC50,[3],0.0398 µM
same,IC50,[4],> 63.1 µM
same,IC50,Microsporum canis B68128,0.2 µM
same,melting point,,252.3 to 252.6 °C
same,IC50,Rhizopus oryzae IHEM5223,> 63.1 µM
same,IC50,[5],> 63.1 µM
same,%-compound metabolised Met_gpLM,[6],84%
same,IC50,[7],> 31.6 µM
same,IC50,[8],> 63.1 µM
same,IC50,[9],> 31.6 µM
same,IC50,[10],> 31.6 µM
same,%-compound metabolised Met_mLM,[11],70%
same,IC50,[12],> 31.6 µM
